Laboratory results taken from patent US20230159619A1, “COMPOSITIONS AND METHODS FOR REGULATING IMMUNE SYSTEM ACTIVITY” (Olema Pharmaceuticals, Inc., priority 2017, published 2023).
Where a chain is given by its changes, count along the chain named.

Tests used:
[1] = molecular target: T1, endoxifen-responsive dominant negative Zap70 polypeptide including an ER(T2) domain having a G400L mutation (Homo sapiens, UniProt P03372, G400L/L544A/M543A); assay: Endoxifen pIC50 in NFAT-Luciferase reporter assay, G400L construct (Example 8); type: cell-based; details: Jurkat E6.1 cells, 10 ng G400L construct, 1:30 Immunocult CD3/CD28/CD2, 19 hours
T1 construct: expressed in transfected cells; host or cells: Jurkat E6.1 cells, transient transfection
T1 sequence (P03372 with tags, fused parts or gaps G400L/M543A/L544A): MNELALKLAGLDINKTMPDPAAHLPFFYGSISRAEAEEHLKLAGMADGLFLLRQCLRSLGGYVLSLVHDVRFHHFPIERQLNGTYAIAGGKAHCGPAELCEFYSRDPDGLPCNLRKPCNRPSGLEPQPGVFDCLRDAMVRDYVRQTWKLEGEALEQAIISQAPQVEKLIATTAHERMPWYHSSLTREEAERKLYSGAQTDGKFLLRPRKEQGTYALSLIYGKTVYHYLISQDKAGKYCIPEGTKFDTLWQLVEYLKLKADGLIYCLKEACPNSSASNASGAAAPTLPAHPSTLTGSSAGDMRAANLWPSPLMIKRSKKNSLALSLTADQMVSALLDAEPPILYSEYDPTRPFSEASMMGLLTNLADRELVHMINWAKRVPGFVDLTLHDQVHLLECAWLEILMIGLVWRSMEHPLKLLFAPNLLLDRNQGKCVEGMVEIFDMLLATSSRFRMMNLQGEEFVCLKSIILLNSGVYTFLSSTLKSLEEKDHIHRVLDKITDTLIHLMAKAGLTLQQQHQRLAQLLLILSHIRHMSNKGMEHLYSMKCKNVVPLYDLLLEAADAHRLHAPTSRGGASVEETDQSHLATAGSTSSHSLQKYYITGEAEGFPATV
Experimental: (§1) To examine how effective endoxifen is at relieving the inhibition or masking of a dominant negative signaling moiety of a trigger-responsive dominant negative signaling polypeptide by an ER(T2) domain including either a G400V or a G400L mutation, Jurkat E6.1 cells were transiently transfected with 90 ng NFAT-Luciferase reporter construct and 10 ng of a G400V or G400L construct. The transfected cells were stimulated the addition of 1:30 Immunocult CD3/CD28/CD2 tetrameric antibody mixture, and treated with or without endoxifen for 19 hours before assaying for luciferase activity. Results were normalized to maximum TCR stimulation with Immunocult alone, with 0% representing the activity of unstimulated transfected cells. Points represent mean activity from sextuplicate wells with error bars representing SEM. pIC50's were calculated using a variable slope sigmoidal dose-response model using GraphPad Prism.

[2] = molecular target: T2, endoxifen-responsive dominant negative Zap70 polypeptide including an ER(T2) domain having a G400V mutation (Homo sapiens, UniProt P03372, G400V/L544A/M543A); assay: Endoxifen pIC50 in NFAT-Luciferase reporter assay, G400V construct (Example 8); type: cell-based; details: Jurkat E6.1 cells, 10 ng G400V construct, 1:30 Immunocult CD3/CD28/CD2, 19 hours
T2 construct: expressed in transfected cells; host or cells: Jurkat E6.1 cells, transient transfection
T2 sequence (P03372 with tags, fused parts or gaps G400V/M543A/L544A): T1 sequence (P03372 with tags, fused parts or gaps G400L/M543A/L544A) with L415V
Experimental: as §1

NFAT-Luciferase reporter = NFAT-Luciferase reporter assay with SHP1(210-595) constructs, endoxifen dose response (FIG. 31); type: cell-based, human; details: Jurkat E6.1 cells, 1:40 Immunocult CD3/CD28, varying amounts of Z-endoxifen
From the text: (§2) Reporter constructs included firefly luciferase (Luc) under the control of an NFAT response element and firefly luciferase (Luc) under the control of an IL2 response element. Data presented in the first panel is from Jurkat E6.1 cells transiently transfected with an NFAT-Luciferase reporter construct, as well as one of (a) empty vector; (b) an expression construct encoding SHP1(210-595); and (c) an expression construct encoding SHP1(210-595)-ER(T12). Data presented in the second panel is from Jurkat E6.1 cells transiently transfected with an IL2-Luciferase reporter construct, as well as one of (a) empty vector; (b) an expression construct encoding SHP1(210-595); and (c) an expression construct encoding SHP1(210-595)-ER(T12). Transient transfections were performed using LTX and PLUS transfection reagent (ThermoFisher Scientific) according to manufacturer's protocols. Transfected cells were treated in the presence of 1:40 dilution of Immunocult CD3/CD28 tetrameric antibody mixture (StemCell Technologies, Canada), which stimulated T-cell activity. Stimulated cells were then further treated with RPMI 1640 media plus 4.8% FBS stripped with charcoal dextran (ThermoFisher Scientific), with varying amounts of Z-endoxifen (Axon-Medchem) as indicated in FIG. 31. Luciferase activity (luminescence) was measured and reported as percent induction of IL2-Luciferase.

IL2-Luciferase reporter [3] = assay: IL2-Luciferase reporter assay with SHP1(210-595) constructs (Example 12); type: cell-based, human; details: Jurkat E6.1 cells, α-CD3 and α-CD28, with or without endoxifen, compared to empty vector controls
Experimental: To provide a means for assessing T cell activity, a construct containing a reporter gene, such as firefly luciferase (Luc), under the control of an IL2 response element can be used. In the present Example, Jurkat E6.1 cells were transiently transfected with an IL2-Luciferase reporter construct, as well as one of (a) empty vector; (b) an expression construct encoding SHP1(210-595); and (c) an expression construct encoding SHP1(210-595)-ER(T12). Transient transfections were performed using LTX and PLUS transfection reagent (ThermoFisher Scientific) according to manufacturer's protocols.
Transfected cells were treated in the absence or presence of 1:30 dilution of Immunocult CD3/CD28 tetrameric antibody mixture (StemCell Technologies, Canada), which stimulated T-cell activity. Stimulated cells were then further treated with RPMI 1640 media plus 4.8% FBS stripped with charcoal dextran (ThermoFisher Scientific), without Z-endoxifen or with 50 nM Z-endoxifen (Axon-Medchem). Luciferase activity (luminescence) was measured and reported as percent induction of IL2-Luciferase.

IL2-Luciferase reporter [4] = assay: IL2-Luciferase reporter assay with SHP1(210-595) constructs, endoxifen dose response (FIG. 31); type: cell-based, human; details: Jurkat E6.1 cells, 1:40 Immunocult CD3/CD28, varying amounts of Z-endoxifen
From the text: as §2

Molecule	IC50 [1]	IC50 [2]	inhibition of NFAT-Luciferase reporter expression (NFAT-Luciferase reporter)	luciferase reporter expression (percent induction of IL2-Luciferase) (IL2-Luciferase reporter [3])	inhibition of IL2-Luciferase reporter expression (IL2-Luciferase reporter [4])
CC/C(=C(\c1ccc(O)cc1)c1ccc(OCCNC)cc1)c1ccccc1 [endoxifen]	1.58 nM	6.31 nM	–	–	–
SHP1(210-595): constitutively active SHP1 phosphatase signaling moiety, SEQ ID NO: 23	–	–	endoxifen-independent manner	substantially reduced expression of luciferase reporter	endoxifen-independent manner
